Assay results published in patent US20230192699A1, “COMPOUNDS AS CASEIN KINASE INHIBITORS” (GRITSCIENCE BIOPHARMACEUTICALS CO., LTD., priority 2020, published 2023).

Molecular target: wild type CK1δ (Homo sapiens, UniProt P48730)
Experiment: CK1δ kinase assay (Kinase-Glo)
Assay type: biochemical
Conditions: 10 μM ATP, 2 nM wild type CK1δ, 85 min at 25° C.; read-out: CK1δ inhibition (IC50)
Protocol: The CK1δ kinase assay was performed with a buffer (40 μL, pH 7.5) containing 50 mM Tris, 10 mM MgCl2, 1 mM dithiothreitol, 100 μg/mL BSA with 10 μM ATP, 2 nM wild type CK1δ, and 42 μM peptide substrate PLSRTLpSVASLPGL (Flotow et al., 1990) in the presence of 1 μL of a CK1δ inhibitor (e.g., a compound of the present application) or 4% DMSO (e.g., as control). The reaction mixture was incubated for 85 min at 25° C.; detection was carried out as described for the Kinase-Glo Assay (Promega). Luminescent output was measured on the Perkin Elmer Envision plate reader (PerkinElmer, Waltham, Mass.).

Chain of wild type CK1δ (P48730 whole entry): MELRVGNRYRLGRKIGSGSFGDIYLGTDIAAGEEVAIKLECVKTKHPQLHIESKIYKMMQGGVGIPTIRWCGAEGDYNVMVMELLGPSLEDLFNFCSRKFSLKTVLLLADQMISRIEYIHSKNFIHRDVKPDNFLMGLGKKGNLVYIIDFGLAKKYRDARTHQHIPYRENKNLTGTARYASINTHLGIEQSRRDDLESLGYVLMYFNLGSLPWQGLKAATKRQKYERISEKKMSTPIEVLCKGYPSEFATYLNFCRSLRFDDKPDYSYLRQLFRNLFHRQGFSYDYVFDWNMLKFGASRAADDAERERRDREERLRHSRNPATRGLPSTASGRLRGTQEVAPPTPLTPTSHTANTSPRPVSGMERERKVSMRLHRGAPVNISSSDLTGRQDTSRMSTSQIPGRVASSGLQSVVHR

SMILES	IC50 [nM]
Fc1ccc(-c2nc3cnccn3c2-c2ccncc2)cc1 [Compound 1-5, 2-(4-fluorophenyl)-3-(pyridin-4-yl)imidazo[1,2-a]pyrazine]	499
Fc1ccc(-c2nc3n(c2-c2ccncc2)CCNC3)cc1 [Compound 1-6, 2-(4-fluorophenyl)-3-(pyridin-4-yl)-5,6,7,8-tetrahydroimidazo[1,2-a]pyrazine]	254
CC(=O)N1CCn2c(nc(-c3ccc(F)cc3)c2-c2ccncc2)C1 [Compound 1-7, 1-(2-(4-fluorophenyl)-3-(pyridin-4-yl)-5,6-dihydroimidazo[1,2-a]pyrazin-7(8H)-yl)ethan-1-one]	614
O=C1OCc2nccc(-c3c(-c4ccc(F)cc4)nc4cnccn34)c21 [Compound 1-8, 4-(2-(4-fluorophenyl)imidazo[1,2-a]pyrazin-3-yl)furo[3,4-b]pyridin-5(7H)-one]	> 100000
Fc1ccc(-c2nn3c(c2-c2ccncc2)CN(Cc2ccccc2)CC3)cc1 [Compound 1-12, 5-benzyl-2-(4-fluorophenyl)-3-(pyridin-4-yl)-4,5,6,7-tetrahydropyrazolo[1,5-a]pyrazine]	74.9
Fc1ccc(-c2nn3c(c2-c2ccncc2)CNCC3)cc1 [Compound 1-13, 2-(4-fluorophenyl)-3-(pyridin-4-yl)-4,5,6,7-tetrahydropyrazolo[1,5-a]pyrazine]	67.3
Fc1ccc(-n2nc3c(c2-c2ccncc2)CCCC3)cc1 [Compound 1-16, 2-(4-fluorophenyl)-3-(pyridin-4-yl)-4,5,6,7-tetrahydro-2H-indazole]	9780
Fc1ccc(-c2nn3c(c2-c2ccncc2)COCC3)cc1 [Compound 1-27, 2-(4-fluorophenyl)-3-(pyridin-4-yl)-6,7-dihydro-4H-pyrazolo[5,1-c][1,4]oxazine]	163
CCC(=O)N1CCn2nc(-c3ccc(F)cc3)c(-c3ccncc3)c2C1 [Compound 1-31, 1-(2-(4-fluorophenyl)-3-(pyridin-4-yl)-6,7-dihydropyrazolo[1,5-a]pyrazin-5(4H)-yl)propan-1-one]	81.3
CC(C)C(=O)N1CCn2nc(-c3ccc(F)cc3)c(-c3ccncc3)c2C1 [Compound 1-32, 1-(2-(4-fluorophenyl)-3-(pyridin-4-yl)-6,7-dihydropyrazolo[1,5-a]pyrazin-5(4H)-yl)-2-methylpropan-1-one]	368
CC(=O)N1CCn2nc(-c3ccc(F)cc3)c(-c3ccnc(C)c3)c2C1 [Compound 1-33, 1-(2-(4-fluorophenyl)-3-(2-methylpyridin-4-yl)-6,7-dihydropyrazolo[1,5-a]pyrazin-5(4H)-yl)ethan-1-one]	177
CC(=O)N1CCn2nc(-c3ccc(F)cc3)c(-c3cc[n+]([O-])c(C)c3)c2C1 [Compound 1-34, 4-(5-acetyl-2-(4-fluorophenyl)-4,5,6,7-tetrahydropyrazolo[1,5-a]pyrazin-3-yl)-2-methylpyridine-1-oxide]	> 100000
CN1CCC(C(=O)N2CCn3nc(-c4ccc(F)cc4)c(-c4ccncc4)c3C2)CC1 [Compound 1-36, (2-(4-fluorophenyl)-3-(pyridin-4-yl)-6,7-dihydropyrazolo[1,5-a]pyrazin-5(4H)-yl)(1-methylpiperidin-4-yl)methanone]	279
CN1CCn2nc(-c3ccc(F)cc3)c(-c3ccncc3)c2C1 [Compound 1-42, 2-(4-fluorophenyl)-5-methyl-3-(pyridin-4-yl)-4,5,6,7-tetrahydropyrazolo[1,5-a]pyrazine]	161
C[C@@H]1CNC(=O)c2c(-c3ccncc3)c(-c3ccc(F)cc3)nn21 [Compound 1-44, (R)-2-(4-fluorophenyl)-7-methyl-3-(pyridin-4-yl)-6,7-dihydropyrazolo[1,5-a]pyrazin-4(5H)-one]	1840
C[C@H]1Cn2nc(-c3ccc(F)cc3)c(-c3ccncc3)c2CO1 [Compound 1-45, (S)-2-(4-fluorophenyl)-6-methyl-3-(pyridin-4-yl)-6,7-dihydro-4H-pyrazolo[5,1-c][1,4]oxazine]	370
Fc1ccc(-c2nn3c(c2-c2ccncc2)COCCC3)cc1 [Compound 1-47, 2-(4-fluorophenyl)-3-(pyridin-4-yl)-7,8-dihydro-4H,6H-pyrazolo[5,1-c][1,4]oxazepine]	686
CC(=O)N1CCn2nc(-c3ccc(F)cc3)c(-c3ccnc(C)n3)c2C1 [Compound 1-51, 1-(2-(4-fluorophenyl)-3-(2-methylpyrimidin-4-yl)-6,7-dihydropyrazolo[1,5-a]pyrazin-5(4H)-yl)ethan-1-one]	963
CCc1cc(-c2c(-c3ccc(F)cc3)nn3c2CN(C(C)=O)CC3)ccn1 [Compound 1-52, 1-(3-(2-ethylpyridin-4-yl)-2-(4-fluorophenyl)-6,7-dihydropyrazolo[1,5-a]pyrazin-5(4H)-yl)ethan-1-one]	3110
CC(=O)N1CCn2nc(-c3ccc(F)cc3)c(-c3ccnc(C(C)C)c3)c2C1 [Compound 1-53, 1-(2-(4-fluorophenyl)-3-(2-isopropylpyridin-4-yl)-6,7-dihydropyrazolo[1,5-a]pyrazin-5(4H)-yl)ethan-1-one]	17000
Nc1cc(-c2c(-c3ccc(F)cc3)nn3c2OCC3)ccn1 [Compound 1-54, 4-(6-(4-fluorophenyl)-2,3-dihydropyrazolo[5,1-b]oxazol-7-yl)pyridin-2-amine]	800

SMILES	IC50 [nM]
Cc1cc(-c2c(-c3ccc(F)cc3)nn3c2CN(C(=O)C2CCN(C)CC2)CC3)ccn1 [Compound 1-55, (2-(4-fluorophenyl)-3-(2-methylpyridin-4-yl)-6,7-dihydropyrazolo[1,5-a]pyrazin-5(4H)-yl)(1-methylpiperidin-4-yl)methanone]	496
Cc1cc(-c2c(-c3ccc(F)cc3)nn3c2CN(C)CC3)ccn1 [Compound 1-56, 2-(4-fluorophenyl)-5-methyl-3-(2-methylpyridin-4-yl)-4,5,6,7-tetrahydropyrazolo[1,5-a]pyrazine]	106
Nc1cc(-c2c(-c3ccc(F)cc3)nn3c2CNCC3)ccn1 [Compound 1-58, 4-(2-(4-fluorophenyl)-4,5,6,7-tetrahydropyrazolo[1,5-a]pyrazin-3-yl)pyridin-2-amine]	723
Cn1cc(-c2ccncc2)c(-c2ccc(F)cc2)c1C#N [Compound 3-1, 3-(4-fluorophenyl)-1-methyl-4-(pyridin-4-yl)-1H-pyrrole-2-carbonitrile]	180
Cn1cc(-c2ccncc2)c(-c2ccc(F)cc2)c1C(N)=O [Compound 3-2, 3-(4-fluorophenyl)-1-methyl-4-(pyridin-4-yl)-1H-pyrrole-2-carboxamide]	11100
COC(=O)c1[nH]cc(-c2ccncc2)c1-c1ccc(F)cc1 [Compound 3-4, methyl 3-(4-fluorophenyl)-4-(pyridin-4-yl)-1H-pyrrole-2-carboxylate]	480
COC(=O)c1c(-c2ccc(F)cc2)c(-c2ccncc2)cn1C [Compound 3-5, methyl 3-(4-fluorophenyl)-1-methyl-4-(pyridin-4-yl)-1H-pyrrole-2-carboxylate]	7710
Cn1nc(-c2ccncc2)c(-c2ccc(F)cc2)n1 [Compound 3-6, 4-(5-(4-fluorophenyl)-2-methyl-2H-1,2,3-triazol-4-yl)pyridine]	178
Cn1nnc(-c2ccc(F)cc2)c1-c1ccncc1 [Compound 3-9, 4-(4-(4-fluorophenyl)-1-methyl-1H-1,2,3-triazol-5-yl)pyridine]	21400
Cn1cc(-c2ccncc2)c(-c2ccccc2F)n1 [Compound 3-14, 4-(3-(2-fluorophenyl)-1-methyl-1H-pyrazol-4-yl)pyridine]	1080
Cn1cc(-c2ccncc2)c(-c2ccc(F)cc2F)n1 [Compound 3-15, 4-(3-(2,4-difluorophenyl)-1-methyl-1H-pyrazol-4-yl)pyridine]	531
Cn1cc(-c2ccncc2)c(-c2ccc(F)c(F)c2)n1 [Compound 3-16, 4-(3-(3,4-difluorophenyl)-1-methyl-1H-pyrazol-4-yl)pyridine]	497
Cn1cc(-c2ccncc2)c(-c2cc(F)cc(F)c2)n1 [Compound 3-17, 4-(3-(3,5-difluorophenyl)-1-methyl-1H-pyrazol-4-yl)pyridine]	1020
Cn1cc(-c2ccncc2)c(-c2ccc(F)cc2Cl)n1 [Compound 3-18, 4-(3-(2-chloro-4-fluorophenyl)-1-methyl-1H-pyrazol-4-yl)pyridine]	4390
Cn1cc(-c2ccncc2)c(-c2cccc(F)c2)n1 [Compound 3-19, 4-(3-(3-fluorophenyl)-1-methyl-1H-pyrazol-4-yl)pyridine]	281
Fc1ccc(-c2nocc2-c2ccncc2)cc1 [Compound 3-20, 3-(4-fluorophenyl)-4-(pyridin-4-yl)isoxazole]	3660
Fc1ccc(-n2nncc2-c2ccncc2)cc1 [Compound 4-1, 4-(1-(4-fluorophenyl)-1H-1,2,3-triazol-5-yl)pyridine]	215
Cn1cc(-c2ccnc3c2C(=O)OC3)c(-c2ccc(F)cc2)c1C#N [Compound 5-1, 3-(4-fluorophenyl)-1-methyl-4-(5-oxo-5,7-dihydrofuro[3,4-b]pyridin-4-yl)-1H-pyrrole-2-carbonitrile]	132
Cn1cc(-c2ccnc3[nH]cnc23)c(-c2ccc(F)cc2)c1C#N [Compound 5-4, 3-(4-fluorophenyl)-4-(3H-imidazo[4,5-b]pyridin-7-yl)-1-methyl-1H-pyrrole-2-carbonitrile]	2200
O=C1OCc2nccc(-c3cn4c(c3-c3ccc(F)cc3)C(=O)NCC4)c21 [Compound 5-5, 4-(8-(4-fluorophenyl)-1-oxo-1,2,3,4-tetrahydropyrrolo[1,2-a]pyrazin-7-yl)furo[3,4-b]pyridin-5(7H)-one]	320
